This note sets out measurements from paper PMC10454728, “A Comparative Study on the Lysosomal Cation Channel TMEM175 Using Automated Whole-Cell Patch-Clamp, Lysosomal Patch-Clamp, and Solid Supported Membrane-Based Electrophysiology: Functional Characterization and High-Throughput Screening Assay Development” (International Journal of Molecular Sciences, 2023).

Structures are written as SMILES.

In the assay the target is T1, TMEM175 (Homo sapiens, UniProt Q9BSA9).
T1 sequence (Q9BSA9 1-504): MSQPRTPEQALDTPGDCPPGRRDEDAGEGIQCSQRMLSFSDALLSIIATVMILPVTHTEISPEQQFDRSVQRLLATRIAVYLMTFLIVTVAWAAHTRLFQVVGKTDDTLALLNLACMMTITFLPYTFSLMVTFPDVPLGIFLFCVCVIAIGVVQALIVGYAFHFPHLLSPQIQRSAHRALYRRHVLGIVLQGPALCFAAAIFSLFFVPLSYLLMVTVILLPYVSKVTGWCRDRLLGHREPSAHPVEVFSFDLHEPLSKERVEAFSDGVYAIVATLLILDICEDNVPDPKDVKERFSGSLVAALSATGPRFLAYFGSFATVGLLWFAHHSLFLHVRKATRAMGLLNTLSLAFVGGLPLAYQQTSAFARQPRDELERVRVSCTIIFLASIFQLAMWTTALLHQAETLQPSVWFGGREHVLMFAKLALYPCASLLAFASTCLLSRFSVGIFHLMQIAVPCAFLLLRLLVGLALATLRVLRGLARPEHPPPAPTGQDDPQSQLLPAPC
Briefly: SSME H+ flux assay (pH jumps) on TMEM175 lysosomes (SURFE2R N1). Format: biochemical. The following applies: 10 mM 4-AP. From the text: To further investigate the capability of TMEM175 to translocate protons using SSME, we performed H^+ concentration or pH jumps using the SURFE^2R N1. The non-activating solution was set to pH 7.6, defining both the lysosomal and cytosolic pH before the start of the experiment. By exchanging the non-activating for the activating solution, we acidified the cytosolic solution and stimulated H^+ influx through TMEM175 (Figure 5A).
However, the application of pH jumps lead to significant artifact currents of positive magnitude, as observed with the control lysosomes (Figure 5C). These artifacts are a result of protons interacting with the lipid membranes and/or unknown H^+ leak pathways through the lysosomal membrane. To conclude pure TMEM175-related H^+ currents, we subtracted the artifact currents from the currents recorded with the TMEM175 sample. When plotting ΔpH against the artifact-corrected average TMEM175 net H^+ current, we obtain a close-to-linear correlation (Figure 5D).
For comparison with the I/c curve reported for K^+ (Figure 3E), we calculated the difference in H^+ concentration across the lysosomal membrane Δc = cH^out − cH^in, which correlates linearly with the passive H^+ flux J = PH+Δc according to Fick’s law.
We used H^+ concentration or pH jumps to measure H^+ flux through TMEM175. Non-activating solution was set to pH 7.6, while activating solution contained different pH values between pH 7.4 and pH 4.6; (B) Representative current traces induced by pH jumps on lysosomes overexpressing TMEM175. All current traces were recorded with the same sensor, starting from the lowest ΔpH. […] The remaining current mostly reflects the background (artifact) current after full block of TMEM175; (C) Representative current traces from the same experiment on control lysosomes. […] This represents the artifact current also underlying the currents recorded with the TMEM175 sample; (D) SEM and average, artifact-corrected, normalized peak currents from N = 4 sensors, reflecting the H^+ flux through TMEM175, solely driven by the pH gradient. […]

On to `Nc1ccncc1` [4-AP, 4-aminopyridine], for which the “Block of H+ influx current” value (ΔpH 3.0, pH 7.6 to 4.6) is “full block”. Further, the “Effect on H+ efflux currents” value (potency lower than for H+ influx) is given as “inhibited”.
